This note sets out measurements from patent US9365576B2, “Pyrrolopyrrolidinone compounds” (Novartis AG, priority 2012, dated 2016).

human MDM2 protein (amino acids 2-188), sequence (Q00987 2-188): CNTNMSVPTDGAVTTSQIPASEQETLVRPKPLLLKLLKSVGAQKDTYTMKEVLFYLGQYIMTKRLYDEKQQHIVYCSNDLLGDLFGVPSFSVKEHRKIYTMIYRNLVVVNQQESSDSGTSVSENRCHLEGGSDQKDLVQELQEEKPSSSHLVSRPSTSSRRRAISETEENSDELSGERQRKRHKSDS

The assay addresses human MDM2 protein (amino acids 2-188) (Homo sapiens (Human), UniProt Q00987). In words: TR-FRET assay, p53-MDM2 Assay 2 (modified). In kind it is binding. Conditions: TR-FRET; 0.1 nM MDM2, 0.1 nM Europium labeled streptavidin, Tecan genios Pro reader; read-out: IC50 p53-MDM2 Assay 2. A digest of the protocol:
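Biotinylated human MDM2 (aa 2–188, 1.25 nM) was preincubated 15 min at room temperature with 0.625 nM Eu-streptavidin, then 10 nM Cy5-p53 peptide (aa 18–26) added for 15 min. TR-FRET ratio 665/620 nm (excitation 340 nm) was read; IC50 came from curve fitting.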
(In TR-FRET formats the signal depends on donor and acceptor labels being close together.)
In the case of `COc1ccc(C#N)cc1-c1cc2c(n1C(C)C)C(c1ccc(Cl)cc1)N([C@H]1CC[C@H](O)CC1)C2=O` (stereo partly drawn) [Example 67, 3-[6-(4-Chloro-phenyl)-5-(trans-4-hydroxy-cyclohexyl)-1-isopropyl-4-oxo-1,4,5,6-tetrahydro-pyrrolo[3,4-b]pyrrol-2-yl]-4-methoxy-benzonitrile], the IC50 came out at 2.49 nM. For `COc1ncc(-c2cc3c(n2C(C)C)C(c2ccc(C#N)cc2)N([C@H]2CC[C@H](O)CC2)C3=O)c(OC)n1` (stereo partly drawn) [Example 173, 4-[2-(2,4-Dimethoxy-pyrimidin-5-yl)-5-(trans-4-hydroxy-cyclohexyl)-1-isopropyl-4-oxo-1,4,5,6-tetrahydro-pyrrolo[3,4-b]pyrrol-6-yl]-benzonitrile] the value was 13.6 nM; for `COc1nc(N(C)C)ncc1-c1cc2c(n1C(C)C)C(c1ccc(Cl)cc1)N(c1c[nH]c(=O)c(Cl)c1)C2=O` (stereo not drawn) [Example 140, 5-(5-Chloro-6-oxo-1,6-dihydro-pyridin-3-yl)-6-(4-chloro-phenyl)-2-(2-dimethylamino-4-methoxy-pyrimidin-5-yl)-1-isopropyl-1-5,6-dihydro-1H-pyrrolo[3,4-b]pyrrol-4-one], 0.231 nM; for `CNC(=O)c1ccc(OC)c(-c2cc3c(n2C(C)C)C(c2ccc(Cl)cc2)N(c2cc(Cl)ccc2C#N)C3=O)c1` (stereo not drawn) [Example 97, 3-[5-(5-Chloro-2-cyano-phenyl)-6-(4-chloro-phenyl)-1-isopropyl-4-oxo-1,4,5,6-tetrahydro-pyrrolo[3,4-b]pyrrol-2-yl]-4-methoxy-N-methyl-benzamide], 0.378 nM.

As for `COc1ncc(-c2cc3c(n2C(C)C)C(c2ccc(Cl)cc2)N(c2cn(C)nc2C)C3=O)c(OC)n1` (stereo not drawn) [Example 181, 6-(4-Chloro-phenyl)-2-(2,4-dimethoxy-pyrimidin-5-yl)-5-(1,3-dimethyl-1H-pyrazol-4-yl)-1-isopropyl-5,6-dihydro-1H-pyrrolo[3,4-b]pyrrol-4-one], the IC50 turned out to be 2.39 nM.

On to `COc1ncc(-c2cc3c(n2C(C)C)[C@H](c2ccc(C#N)c(F)c2)N(c2cc(Cl)c(=O)n(C)c2)C3=O)c(OC)n1` [Example 237, (S)-4-(5-(5-Chloro-1-methyl-6-oxo-1,6-dihydropyridin-3-yl)-2-(2,4-dimethoxypyrimidin-5-yl)-1-isopropyl-4-oxo-1,4,5,6-tetrahydropyrrolo[3,4-b]pyrrol-6-yl)-2-fluorobenzonitrile], for which the IC50 was determined as 0.107 nM. As for `CNc1ncc(-c2cc3c(n2C(C)C)C(c2ccc(Cl)cc2C)N(c2cc(Cl)c(=O)n(C)c2)C3=O)c(OC)n1` (stereo not drawn) [Example 151, 5-(5-Chloro-1-methyl-6-oxo-1,6-dihydro-pyridin-3-yl)-6-(4-chloro-2-methyl-phenyl)-1-isopropyl-2-(4-methoxy-2-methylamino-pyrimidin-5-yl)-5,6-dihydro-1H-pyrrolo[3,4-b]pyrrol-4-one], the IC50 was 0.243 nM. As to `COc1ncc(-c2cc3c(n2C(C)C)[C@@H](c2ccc(Cl)cc2)N(c2cc(Cl)c(=O)n(C)c2)C3=O)c(OC)n1` [Example 122, (R)-5-(5-Chloro-1-methyl-6-oxo-1,6-dihydro-pyridin-3-yl)-6-(4-chloro-phenyl)-2-(2,4-dimethoxy-pyrimidin-5-yl)-1-isopropyl-5,6-dihydro-1H-pyrrolo[3,4-b]pyrrol-4-one], the IC50 is 76.9 nM. As for `COc1nc(N(C)C)ncc1-c1cc2c(n1C(C)C)C(c1ccc(Cl)cc1)N(c1cc(Cl)c[nH]c1=O)C2=O` (stereo not drawn) [Example 123, 5-(5-Chloro-2-oxo-1,2-dihydro-pyridin-3-yl)-6-(4-chloro-phenyl)-2-(2-dimethylamino-4-methoxy-pyrimidin-5-yl)-1-isopropyl-5,6-dihydro-1H-pyrrolo[3,4-b]pyrrol-4-one], the figure is 0.106 nM.

Regarding `COc1ncc(-c2cc3c(n2C(C)C)C(c2ccc(C#N)c(F)c2)N(c2cc(Cl)c(=O)n(C)c2)C3=O)c(OC)n1` (stereo not drawn) [Example 195, 4-[5-(5-Chloro-1-methyl-6-oxo-1,6-dihydro-pyridin-3-yl)-2-(2,4-dimethoxy-pyrimidin-5-yl)-1-isopropyl-4-oxo-1,4,5,6-tetrahydro-pyrrolo[3,4-b]pyrrol-6-yl]-2-fluoro-benzonitrile], the IC50 is 0.252 nM. On to `COc1cn(C)c(=O)cc1-c1cc2c(n1C(C)C)C(c1ccc(Cl)cc1)N(c1c(F)c(C)nn1C)C2=O` (stereo not drawn) [Example 208, 6-(4-Chloro-phenyl)-5-(4-fluoro-2,5-dimethyl-2H-pyrazol-3-yl)-1-isopropyl-2-(5-methoxy-1-methyl-2-oxo-1,2-dihydro-pyridin-4-yl)-5,6-dihydro-1H-pyrrolo[3,4-b]pyrrol-4-one], for which the IC50 is 0.861 nM.

For `COc1ccc(C#N)cc1-c1cc2c(n1C(C)C)C(c1ccc(Cl)cc1)N(C1CCOCC1)C2=O` (stereo not drawn) [Example 77, 3-[6-(4-Chloro-phenyl)-1-isopropyl-4-oxo-5-(tetrahydro-pyran-4-yl)-1,4,5,6-tetrahydro-pyrrolo[3,4-b]pyrrol-2-yl]-4-methoxy-benzonitrile], the IC50 turned out to be 1.51 nM. As for `COc1ncc(-c2cc3c(n2C(C)C)C(c2ccc(Cl)cc2)N(c2cc(Cl)ccc2C)C3=O)c(OC)n1` (stereo not drawn) [Example 14, 5-(5-Chloro-2-methyl-phenyl)-6-(4-chloro-phenyl)-2-(2,4-dimethoxy-pyrimidin-5-yl)-1-isopropyl-5,6-dihydro-1H-pyrrolo[3,4-b]pyrrol-4-one], the figure is 0.068 nM; as for `COc1ncc(-c2cc3c(n2C(C)C)C(c2ccc(Cl)cc2)N(c2cc(Cl)c(=O)n(C)c2F)C3=O)c(OC)n1` (stereo not drawn) [Example 156, 5-(5-Chloro-2-fluoro-1-methyl-6-oxo-1,6-dihydro-pyridin-3-yl)-6-(4-chloro-phenyl)-2-(2,4-dimethoxy-pyrimidin-5-yl)-1-isopropyl-5,6-dihydro-1H-pyrrolo[3,4-b]pyrrol-4-one], 0.122 nM; as for `COc1ccc(C(=O)N(C)C)cc1-c1cc2c(n1C(C)C)[C@@H](c1ccc(Cl)cc1)N(c1cc(Cl)ccc1C)C2=O` [Example 21, 3-[(R)-5-(5-Chloro-2-methyl-phenyl)-6-(4-chloro-phenyl)-1-isopropyl-4-oxo-1,4,5,6-tetrahydro-pyrrolo[3,4-b]pyrrol-2-yl]-4-methoxy-N,N-dimethyl-benzamide], 621 nM. As for `COc1ccc(C(N)=O)cc1-c1cc2c(n1C(C)C)C(c1ccc(Cl)cc1)N(c1cc(Cl)ccc1C)C2=O` (stereo not drawn) [Example 61, 3-[5-(5-Chloro-2-methyl-phenyl)-6-(4-chloro-phenyl)-1-isopropyl-4-oxo-1,4,5,6-tetrahydro-pyrrolo[3,4-b]pyrrol-2-yl]-4-methoxy-benzamide], the figure is 0.104 nM; as for `CNc1ncc(-c2cc3c(n2C(C)C)[C@H](c2ccc(C#N)cc2)N(c2cc(Cl)cn(C)c2=O)C3=O)c(OC)n1` [Example 165, 4-[(S)-5-(5-Chloro-1-methyl-2-oxo-1,2-dihydro-pyridin-3-yl)-1-isopropyl-2-(4-methoxy-2-methylamino-pyrimidin-5-yl)-4-oxo-1,4,5,6-tetrahydro-pyrrolo[3,4-b]pyrrol-6-yl]-benzonitrile], 0.578 nM. For `COc1ncc(-c2cc3c(n2C(C)C)C(c2ccc(Cl)cc2)N(c2ccc(F)c(Cl)c2)C3=O)c(OC)n1` (stereo not drawn) [Example 54, 5-(3-Chloro-4-fluoro-phenyl)-6-(4-chloro-phenyl)-2-(2,4-dimethoxy-pyrimidin-5-yl)-1-isopropyl-5,6-dihydro-1H-pyrrolo[3,4-b]pyrrol-4-one] the value was 0.267 nM.

The IC50 is the concentration at which inhibition is half-maximal.
